Assay results as given in US7348318B2, “α-Amino-N-(diaminophosphinyl)lactam derivatives” (priority 2002, dated 2008).
Structures can show the parent of a compound that is named as a salt.

Columns and labels:
dipeptidyl peptidase IV = molecular target: T1, dipeptidyl peptidase IV (Rattus norvegicus, UniProt P14740); assay: biochemical; settings: glycyl·prolyl·β-naphthylamide, pH 7.2, 37° C., 1 hour, read-out: Dipeptidyl peptidase IV 50% inhibition activity value (converted)
T1 construct: partially purified from rat kidney homogenate by ammonium sulfate fractionation; from tissue; host or cells: rat kidney
T1 sequence (P14740 whole entry): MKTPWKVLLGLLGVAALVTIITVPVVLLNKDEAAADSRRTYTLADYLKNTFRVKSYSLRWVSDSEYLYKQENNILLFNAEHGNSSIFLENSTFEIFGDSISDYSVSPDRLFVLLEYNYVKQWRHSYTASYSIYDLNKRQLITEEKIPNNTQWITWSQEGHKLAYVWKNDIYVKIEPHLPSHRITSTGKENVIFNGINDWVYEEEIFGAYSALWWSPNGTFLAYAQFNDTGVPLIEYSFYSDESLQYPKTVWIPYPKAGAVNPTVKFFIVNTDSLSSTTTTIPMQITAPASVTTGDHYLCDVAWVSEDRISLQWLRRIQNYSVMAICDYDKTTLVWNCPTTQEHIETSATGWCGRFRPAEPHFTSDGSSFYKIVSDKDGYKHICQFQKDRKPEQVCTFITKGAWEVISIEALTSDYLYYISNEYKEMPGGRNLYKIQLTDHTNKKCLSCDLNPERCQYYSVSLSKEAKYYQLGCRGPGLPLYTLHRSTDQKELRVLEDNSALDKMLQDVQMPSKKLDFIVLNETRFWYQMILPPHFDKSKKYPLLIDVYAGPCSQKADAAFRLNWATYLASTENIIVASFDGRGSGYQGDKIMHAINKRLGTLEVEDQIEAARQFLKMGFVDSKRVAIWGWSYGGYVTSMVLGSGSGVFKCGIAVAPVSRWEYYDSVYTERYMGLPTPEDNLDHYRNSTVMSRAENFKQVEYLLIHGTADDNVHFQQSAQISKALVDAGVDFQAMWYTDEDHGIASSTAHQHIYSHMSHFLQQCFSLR

[1] = system: ICR strain male mice (Crj:CD-1); assay: Test for evaluating efficacy in drug-induced leukopenia (cyclophosphamide); format: in vivo; settings: for number of leukocytes: cyclophosphamide 200 mg/kg i.p. Day 0
Protocol: The efficacy of the compound of Example 1 in drug-induced leukopenia was evaluated according to the method of Okabe et al. (Yakuri to Chiryo (Pharmacology and Treatment), Vol. 19, No. 6, p. 55, 1991).
ICR strain male mice (Crj:CD-1) aged 8 weeks were used in the test. The animals were divided into three groups of 3 or 4 animals each. On Day 0, cyclophosphamide was intraperitoneally administered once to all the groups in a dose of 200 mg/kg. From the next day, the following were intravenously and repeatedly administered to the groups, respectively, for 5 days (Days 1 to 5); a first group (a control group): physiological saline, a second group: the compound of Example 1 (30 mg/kg/day), and a third group: the compound of Example 1 (100 mg/kg/day). Blood was drawn from the orbital vein on Day 0 (before the administration of cyclophosphamide) and Days 2, 4, 6, 8 and 10, and the number of leukocytes was periodically measured to investigate the leukocyte-increasing effect of the compound of Example 1 on leukopenia induced by cyclophosphamide.

[2] = system: ICR strain male mice (Crj:CD-1); assay: Test for investigating the increase of leukocytes and the decrease of platelets in normal mice; format: in vivo; settings: for Number of platelets / number of leukocytes: blood drawn day after last administration
Protocol: ICR strain male mice (Crj:CD-1) aged 8 weeks were used in the test. The animals were divided into 5 groups of 3 to 4 animals each. The following were intravenously and repeatedly administered to the groups, respectively, for 5 days; a first group: physiological saline as solvent, a second group: the compound of Example 45 (hydrochloride of the compound of Example 1) (10 mg/kg/day), a third group: the compound of Example 45 (50 mg/kg/day), a fourth group: the compound of Example 45 (250 mg/kg/day), and a fifth group: sulphostin (WO 99/25719 and JP-A-2000-327689; (3S, PR)-3-amino-1-amino(sulfoamino)phosphinyl-2-piperidone) (50 mg/kg/day). On the day subsequent to the last day in the administration period, blood was drawn from the abdominal aorta under anesthesia and the number of leukocytes and the number of platelets were measured.

[3] = normal mice, 10 mg/kg/day i.v. for 5 days
[4] = normal mice, 50 mg/kg/day i.v. for 5 days
[5] = normal mice, 250 mg/kg/day i.v. for 5 days

CCCNP(N)(=O)N1CCC[C@H](N)C1=O (mixture of isomers) [Example 15, (3S, P (RS))-3-amino-1-amino(n-propylamino)phosphinyl-2-piperidone]
IC50 (dipeptidyl peptidase IV): 7260 nM

N[C@H]1CCCN(P(N)(=O)NC(=O)c2ccccc2)C1=O (mixture of isomers) [Example 39, (3S, P (RS))-3-amino-1-amino(benzoylamino)phosphinyl-2-piperidone]
IC50 (dipeptidyl peptidase IV): 2400 nM

CCCC(=O)NP(N)(=O)N1CCC[C@H](N)C1=O (mixture of isomers) [Example 51, (3S, P (SR))-3-amino-1-amino(n-butanoylamino)phosphinyl-2-piperidone]
IC50 (dipeptidyl peptidase IV): 1140 nM

CC(C)(C)CC(=O)NP(N)(=O)N1CCC[C@H](N)C1=O (mixture of isomers) [Example 53, (3S, P (SR))-3-amino-1-amino(t-butylacetylamino)phosphinyl-2-piperidone]
IC50 (dipeptidyl peptidase IV): 1480 nM

N[C@H]1CCCN(P(N)(=O)NC(=O)C2CCCCC2)C1=O (mixture of isomers) [Example 55, (3S, P (SR))-3-amino-1-amino(cyclohexanecarbonylamino)phosphinyl-2-piperidone]
IC50 (dipeptidyl peptidase IV): 1590 nM

N[C@H]1CCCN(P(N)(=O)NC(=O)COc2ccccc2)C1=O (mixture of isomers) [Example 57, (3S, P (SR))-3-amino-1-amino(phenoxyacetylamino)phosphinyl-2-piperidone]
IC50 (dipeptidyl peptidase IV): 187 nM

N[C@H]1CCCN(P(N)(=O)NC(=O)CCc2ccccc2)C1=O (mixture of isomers) [Example 59, (3S, P (SR))-3-amino-1-amino(3-phenylpropanoylamino)phosphinyl-2-piperidone]
IC50 (dipeptidyl peptidase IV): 894 nM

COc1ccc(C(=O)NP(N)(=O)N2CCC[C@H](N)C2=O)cc1 (mixture of isomers) [Example 61, (3S, P (SR))-3-amino-1-amino(4-methoxybenzoylamino)phosphinyl-2-piperidone]
IC50 (dipeptidyl peptidase IV): 1070 nM

N[C@H]1CCCN(P(N)(=O)Nc2ccccc2)C1=O (single isomer, unassigned) [Example 17, (3S, P (R or S))-3-amino-1-amino(phenylamino)phosphinyl-2-piperidone]
IC50 (dipeptidyl peptidase IV): 5590 nM

CC(=O)NP(N)(=O)N1CCC[C@H](N)C1=O (single isomer, unassigned) [Example 48, (3S, P (R or S))-3-amino-1-amino(acetylamino)phosphinyl-2-piperidone ½ fumarate]
IC50 (dipeptidyl peptidase IV): 1620 nM

N[C@H]1CCCN(P(N)(N)=O)C1=O [Example 1, (3S)-3-amino-1-diaminophosphinyl-2-piperidone]
IC50 (dipeptidyl peptidase IV): 88.5 nM | number of leukocytes ([1]; 30 mg/kg/day i.v. Days 1 to 5, Day 0 (before cyclophosphamide)): 33 ± 7.8 ×100/millimeter cube | number of leukocytes ([1]; 30 mg/kg/day i.v. Days 1 to 5, Day 2): 23 ± 14.2 ×100/millimeter cube | number of leukocytes ([1]; 30 mg/kg/day i.v. Days 1 to 5, Day 4): 7 ± 1.8 ×100/millimeter cube | number of leukocytes ([1]; 30 mg/kg/day i.v. Days 1 to 5, Day 6): 25 ± 6.2 ×100/millimeter cube | number of leukocytes ([1]; 30 mg/kg/day i.v. Days 1 to 5, Day 8): 108 ± 52.8 ×100/millimeter cube | number of leukocytes ([1]; 30 mg/kg/day i.v. Days 1 to 5, Day 10): 58 ± 16.1 ×100/millimeter cube | number of leukocytes relative to Day 0 ([1]; 30 mg/kg/day, Day 0): 100% | number of leukocytes relative to Day 0 ([1]; 30 mg/kg/day, Day 2): 70% | number of leukocytes relative to Day 0 ([1]; 30 mg/kg/day, Day 4): 21% | number of leukocytes relative to Day 0 ([1]; 30 mg/kg/day, Day 6): 76% | number of leukocytes relative to Day 0 ([1]; 30 mg/kg/day, Day 8): 327% | number of leukocytes relative to Day 0 ([1]; 30 mg/kg/day, Day 10): 176% | number of leukocytes ([1]; 100 mg/kg/day i.v. Days 1 to 5, Day 0 (before cyclophosphamide)): 81 ± 38.7 ×100/millimeter cube | number of leukocytes ([1]; 100 mg/kg/day i.v. Days 1 to 5, Day 2): 25 ± 8.3 ×100/millimeter cube | number of leukocytes ([1]; 100 mg/kg/day i.v. Days 1 to 5, Day 4): 13 ± 6.8 ×100/millimeter cube | number of leukocytes ([1]; 100 mg/kg/day i.v. Days 1 to 5, Day 6): 124 ± 144.2 ×100/millimeter cube | number of leukocytes ([1]; 100 mg/kg/day i.v. Days 1 to 5, Day 8): 139 ± 36.7 ×100/millimeter cube | number of leukocytes ([1]; 100 mg/kg/day i.v. Days 1 to 5, Day 10): 49 ± 7.3 ×100/millimeter cube | number of leukocytes relative to Day 0 ([1]; 100 mg/kg/day, Day 0): 100% | number of leukocytes relative to Day 0 ([1]; 100 mg/kg/day, Day 2): 31% | number of leukocytes relative to Day 0 ([1]; 100 mg/kg/day, Day 4): 16% | number of leukocytes relative to Day 0 ([1]; 100 mg/kg/day, Day 6): 153% | number of leukocytes relative to Day 0 ([1]; 100 mg/kg/day, Day 8): 172% | number of leukocytes relative to Day 0 ([1]; 100 mg/kg/day, Day 10): 60% | effect in increasing the number of leukocytes (in words) ([1]; data on Day 8): very effective in increasing the number of leukocytes | recovery of the number of leukocytes to the initial value after the administration of cyclophosphamide ([1]; groups treated with 30 and 100 mg/kg/day, control group requires 8 days): 6 days

N[C@H]1CCCN(P(=O)(Nc2ccccc2)Nc2ccccc2)C1=O [Example 11, (3S)-3-amino-1-bis(phenylamino)phosphinyl-2-piperidone]
IC50 (dipeptidyl peptidase IV): 43600 nM

CN[C@H]1CCCN(P(N)(N)=O)C1=O [Example 22, (3S)-3-methylamino-1-diaminophosphinyl-2-piperidone]
IC50 (dipeptidyl peptidase IV): 1410 nM

CCCN[C@H]1CCCN(P(N)(N)=O)C1=O [Example 25, (3S)-3-n-propylamino-1-diaminophosphinyl-2-piperidone]
IC50 (dipeptidyl peptidase IV): 3670 nM

CC(C)N[C@H]1CCCN(P(N)(N)=O)C1=O [Example 28, (3S)-3-isopropylamino-1-diaminophosphinyl-2-piperidone]
IC50 (dipeptidyl peptidase IV): 17900 nM

CCCCN[C@H]1CCCN(P(N)(N)=O)C1=O [Example 31, (3S)-3-n-butylamino-1-diaminophosphinyl-2-piperidone]
IC50 (dipeptidyl peptidase IV): 3750 nM

NP(N)(=O)N1CCC[C@H](NCc2ccccc2)C1=O [Example 34, (3S)-3-benzylamino-1-diaminophosphinyl-2-piperidone]
IC50 (dipeptidyl peptidase IV): 3900 nM

NP(N)(=O)N1CCC[C@H](NCc2ccco2)C1=O [Example 37, (3S)-3-furfurylamino-1-diaminophosphinyl-2-piperidone]
IC50 (dipeptidyl peptidase IV): 7710 nM

N[C@@H]1CCCN(P(N)(N)=O)C1=O [Example 42, (3R)-3-amino-1-diaminophosphinyl-2-piperidone]
IC50 (dipeptidyl peptidase IV): 48.4 nM

N[C@H]1CCCCN(P(N)(N)=O)C1=O [Example 43, (3S)-3-amino-1-diaminophosphinyl-2-perhydroazepinone]
IC50 (dipeptidyl peptidase IV): 107 nM

Cl.N[C@H]1CCCN(P(N)(N)=O)C1=O [Example 45, (3S)-3-amino-1-diaminophosphinyl-2-piperidone hydrochloride]
factor by which the number of leukocytes is larger than that of the control group ([2]; 10 mg/kg/day group): 4.2 | factor by which the number of leukocytes is larger than that of the control group ([2]; 50 mg/kg/day group): 3.8 | factor by which the number of leukocytes is larger than that of the control group ([2]; 250 mg/kg/day group): 6.7 | Number of platelets [2, 3]: 76.0 ± 7.8 ×10000/millimeter cube | number of leukocytes [2, 3]: 25 ± 13 ×100/millimeter cube | Number of platelets [2, 4]: 84.9 ± 8.3 ×10000/millimeter cube | number of leukocytes [2, 4]: 23 ± 19 ×100/millimeter cube | Number of platelets [2, 5]: 81.1 ± 8.0 ×10000/millimeter cube | number of leukocytes [2, 5]: 40 ± 18 ×100/millimeter cube | influence on the number of platelets (in words) ([2]; normal mice, all the groups (10, 50, 250 mg/kg/day)): did not decrease the number of platelets

N[C@H]1CCCN([P@@](N)(=O)NS(=O)(=O)O)C1=O [sulphostin, (3S, PR)-3-amino-1-amino(sulfoamino)phosphinyl-2-piperidone, reference compound]
number of platelets as compared with the control group ([2]; 50 mg/kg/day, decreased): 73% | Number of platelets [2, 4]: 57.1 ± 5.1 ×10000/millimeter cube | number of leukocytes [2, 4]: 15 ± 5 ×100/millimeter cube
